24 molecules from ChEMBL document CHEMBL1201862, “PubChem BioAssay data set” (2004) can be followed below.

The source made the active and inactive calls.

The target in test [1] is T1, High affinity choline transporter 1 (Homo sapiens, UniProt Q9GZV3).
T1 sequence (Q9GZV3 whole entry): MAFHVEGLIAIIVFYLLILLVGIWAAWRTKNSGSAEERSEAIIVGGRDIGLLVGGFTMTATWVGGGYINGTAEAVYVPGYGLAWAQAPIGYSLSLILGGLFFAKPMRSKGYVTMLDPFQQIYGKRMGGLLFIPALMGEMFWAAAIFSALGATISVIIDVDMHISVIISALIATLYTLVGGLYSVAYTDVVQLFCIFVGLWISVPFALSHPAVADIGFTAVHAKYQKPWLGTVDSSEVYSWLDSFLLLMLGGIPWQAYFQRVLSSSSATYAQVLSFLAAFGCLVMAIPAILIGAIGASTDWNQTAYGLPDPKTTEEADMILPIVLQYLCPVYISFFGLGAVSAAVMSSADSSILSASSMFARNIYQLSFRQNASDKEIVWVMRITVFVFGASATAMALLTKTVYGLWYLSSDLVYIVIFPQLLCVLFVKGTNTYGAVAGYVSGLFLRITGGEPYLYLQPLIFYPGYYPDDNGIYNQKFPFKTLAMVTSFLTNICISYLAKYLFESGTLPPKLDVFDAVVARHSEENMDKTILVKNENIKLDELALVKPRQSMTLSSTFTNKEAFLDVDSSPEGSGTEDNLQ
The test can be described thus: human choline transporter blockers, potency – cell-based, 5-point CRC, membrane potential dye, dose response (AID 504840). The format is functional.

Test [2] is described as follows: OVCAR8 cell viability loss – plate reader, dry powder samples, PAX8 project, dose response (AID 743197). The following applies: OVCAR-8. The test is classed as functional, cell-based.
The next test deals with Paired box protein Pax-8 (Homo sapiens, UniProt Q06710). The test can be described thus: PAX8 transcriptional activity inhibition in RMG-I – RMG-I cells, luciferase, cherry-pick, dose response (AID 687027).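 Further: luciferase reporter driven by Pax8 target thyroperoxidase promoter measured by SteadyGlo luminescence.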 The format is functional, cell-based.
Chain of Paired box protein Pax-8 (Q06710 whole entry): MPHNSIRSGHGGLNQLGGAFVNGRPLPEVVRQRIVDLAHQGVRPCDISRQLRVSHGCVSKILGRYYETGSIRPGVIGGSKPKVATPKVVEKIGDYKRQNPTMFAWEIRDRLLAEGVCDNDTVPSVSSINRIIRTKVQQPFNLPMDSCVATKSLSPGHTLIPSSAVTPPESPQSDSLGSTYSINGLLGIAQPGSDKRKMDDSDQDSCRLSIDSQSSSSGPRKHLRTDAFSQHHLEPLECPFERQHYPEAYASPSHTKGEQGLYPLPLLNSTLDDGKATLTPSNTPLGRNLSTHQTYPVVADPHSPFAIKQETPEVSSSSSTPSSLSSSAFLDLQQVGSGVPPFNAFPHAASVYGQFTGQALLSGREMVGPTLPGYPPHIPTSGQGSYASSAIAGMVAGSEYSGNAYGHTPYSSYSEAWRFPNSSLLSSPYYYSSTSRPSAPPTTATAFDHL
For test [3], the target named is Induced myeloid leukemia cell differentiation protein Mcl-1 (Homo sapiens, UniProt Q07820). The test is classed as functional.
Chain of Induced myeloid leukemia cell differentiation protein Mcl-1 (Q07820 whole entry): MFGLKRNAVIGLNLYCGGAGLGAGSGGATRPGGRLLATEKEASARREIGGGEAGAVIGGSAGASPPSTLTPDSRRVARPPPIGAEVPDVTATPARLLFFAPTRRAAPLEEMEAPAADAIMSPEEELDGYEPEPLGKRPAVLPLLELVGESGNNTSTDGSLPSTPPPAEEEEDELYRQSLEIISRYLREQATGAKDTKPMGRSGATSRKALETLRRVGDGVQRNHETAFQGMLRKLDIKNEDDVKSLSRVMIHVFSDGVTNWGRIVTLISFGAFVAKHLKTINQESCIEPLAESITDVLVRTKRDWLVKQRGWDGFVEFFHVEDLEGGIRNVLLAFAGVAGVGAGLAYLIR
A short description of test [4]: general mammalian cell viability loss – inhibitor set, cherry-pick, set 2, cytotoxicity control for miR-122 modulator project, dose response (AID 720697). The format is functional, cell-based.
In test [5] the target is DNA dC->dU-editing enzyme APOBEC-3G (Homo sapiens, UniProt Q9HC16). The experiment in a line: Dose Response confirmation of small molecule APOBEC3G DNA Deaminase Inhibitors via a fluorescence-based single-stranded DNA deaminase assay. [Related pubchem assays (depositor defined):AID493012, AID493028]. The test is classed as functional.
Chain of DNA dC->dU-editing enzyme APOBEC-3G (Q9HC16 whole entry, the tested form may be a part): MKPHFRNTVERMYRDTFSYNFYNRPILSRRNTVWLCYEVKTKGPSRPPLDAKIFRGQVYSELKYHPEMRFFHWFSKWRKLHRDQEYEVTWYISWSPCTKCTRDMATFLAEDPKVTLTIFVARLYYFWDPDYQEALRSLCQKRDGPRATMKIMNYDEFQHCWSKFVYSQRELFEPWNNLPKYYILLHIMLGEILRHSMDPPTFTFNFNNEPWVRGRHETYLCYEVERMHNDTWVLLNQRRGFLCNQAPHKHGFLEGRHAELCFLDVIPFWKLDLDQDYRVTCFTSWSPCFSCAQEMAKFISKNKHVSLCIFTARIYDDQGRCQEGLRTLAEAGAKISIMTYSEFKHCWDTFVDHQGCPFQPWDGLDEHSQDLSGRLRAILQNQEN
The target of test [6] is T2, Polyadenylate-binding protein 1 (Homo sapiens, UniProt P11940). The test can be described thus: MLLE domain peptide-binding blockers, IC50 – biochemical, fluorescence polarization, FITC-PAM2 peptide, dose response (AID 602259). The test is classed as functional. As to conditions: read-out: IC50_Mean. Background: Fluorescence polarisation rises when a labelled molecule tumbles more slowly, as on binding a larger partner.
T2 sequence (P11940 whole entry, the tested form may be a part): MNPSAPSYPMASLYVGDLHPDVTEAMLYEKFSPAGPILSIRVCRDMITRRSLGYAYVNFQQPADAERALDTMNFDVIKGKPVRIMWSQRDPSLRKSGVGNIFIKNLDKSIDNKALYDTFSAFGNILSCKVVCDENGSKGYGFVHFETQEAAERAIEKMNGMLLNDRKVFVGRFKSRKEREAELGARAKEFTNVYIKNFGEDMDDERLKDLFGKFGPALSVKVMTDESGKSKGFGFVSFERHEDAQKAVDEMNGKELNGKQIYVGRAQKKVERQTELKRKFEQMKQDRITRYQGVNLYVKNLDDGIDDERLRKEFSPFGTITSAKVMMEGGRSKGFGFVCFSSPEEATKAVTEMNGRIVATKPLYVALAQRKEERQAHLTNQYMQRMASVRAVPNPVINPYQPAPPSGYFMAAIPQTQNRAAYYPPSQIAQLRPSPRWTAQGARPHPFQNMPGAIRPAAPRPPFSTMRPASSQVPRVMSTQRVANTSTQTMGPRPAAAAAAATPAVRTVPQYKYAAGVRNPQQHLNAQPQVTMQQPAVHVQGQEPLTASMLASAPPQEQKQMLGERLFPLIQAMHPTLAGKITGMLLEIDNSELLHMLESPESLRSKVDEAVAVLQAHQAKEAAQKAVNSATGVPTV

Test [7] addresses T2, Polyadenylate-binding protein 1. The test can be described thus: MLLE binding blockers, Cy5 peptide tracer – biochemical, fluorescence polarization, Cy5-PAM2 peptide, secondary, miRNA deadenylation inhibitor project, dose response (AID 602260). The format is functional. The following applies: read-out: IC50_Mean.
In another test the test system is HEK293. The experiment in a line: EBV LMP1 TES2 canonical NF-kB signalling blockers – cell-based, HEK293, luciferase, cherry-pick, dose response (AID 588343). The test is classed as functional. As to conditions: Homo sapiens.
In another test the test system is Streptococcus. The test can be described thus: GAS UMAA2166 growth inhibition – luminescence, BacTiterGlo, counter-screen for streptokinase expression inhibitor project, dose response (AID 1915).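 Further: potency for reduction of bacterial viability or growth.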 The format is functional, organism-based. (In general: The purpose of a counterscreen is to sort out artefacts and off-target activity.)
A further test has as its system Vero. The test can be described thus: cells. The format is functional. The following applies: Chlorocebus sabaeus.
Test [8] deals with Streptococcus sp. 'group A'. The test can be described thus: Streptococcus pyogenes SK(-)GAS viability under kanamycin – luminescence, BacTiterGlo, confirmation, counter-screen for streptokinase expression inhibitor project, dose response (AID 1900). The format is functional, organism-based.
The test system of another test is HeLa. The test can be described thus: ATP-based viability loss in HeLa cells – cell-based, CellTiter-Glo luminescence, cherry-pick samples, cytotoxicity control for MITF activator project, dose response (AID 540259). The format is functional. The following applies: Homo sapiens.
A short description of test [9]: Luminescence Cell-Based Dose Response HTS to Identify Activators of Luciferase Translation or Activity in H4 […] Cells. [Related pubchem assays: 1829 (Project Summary), 1814 (Primary HTS)]. The test is classed as functional.
In the next test the test system is H4. The test can be described thus: Luminescence Cell-Based Dose Response HTS to Identify Activators of 5'UTR Stem-Loop Driven Prion Protein mRNA Translation in H4 Neuroglioblastoma Cells. [Related pubchem assays: 1829 (Project Summary), 1814 (Primary HTS)]. The test is classed as functional. The following applies: Homo sapiens.
Test [10] can be described thus: viability of uninfected HEp-2 cells – cell-based, HTS, cytotoxicity control for RSV inhibitor project, dose response (AID 2410). The format is functional. The following applies: human respiratory syncytial virus.
In test [11] the target is T3, Fatty acid synthase (Homo sapiens, UniProt P49327). The experiment in a line: inhibition of human FAS-TE enzyme activity – biochemical, kinetic fluorescence intensity, dose response (AID 624326).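 Further: rate of fluorescence rise from hydrolysis of a fluorogenic O-methyl fluorescein ester substrate.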 The format is functional.
T3 sequence (P49327 whole entry): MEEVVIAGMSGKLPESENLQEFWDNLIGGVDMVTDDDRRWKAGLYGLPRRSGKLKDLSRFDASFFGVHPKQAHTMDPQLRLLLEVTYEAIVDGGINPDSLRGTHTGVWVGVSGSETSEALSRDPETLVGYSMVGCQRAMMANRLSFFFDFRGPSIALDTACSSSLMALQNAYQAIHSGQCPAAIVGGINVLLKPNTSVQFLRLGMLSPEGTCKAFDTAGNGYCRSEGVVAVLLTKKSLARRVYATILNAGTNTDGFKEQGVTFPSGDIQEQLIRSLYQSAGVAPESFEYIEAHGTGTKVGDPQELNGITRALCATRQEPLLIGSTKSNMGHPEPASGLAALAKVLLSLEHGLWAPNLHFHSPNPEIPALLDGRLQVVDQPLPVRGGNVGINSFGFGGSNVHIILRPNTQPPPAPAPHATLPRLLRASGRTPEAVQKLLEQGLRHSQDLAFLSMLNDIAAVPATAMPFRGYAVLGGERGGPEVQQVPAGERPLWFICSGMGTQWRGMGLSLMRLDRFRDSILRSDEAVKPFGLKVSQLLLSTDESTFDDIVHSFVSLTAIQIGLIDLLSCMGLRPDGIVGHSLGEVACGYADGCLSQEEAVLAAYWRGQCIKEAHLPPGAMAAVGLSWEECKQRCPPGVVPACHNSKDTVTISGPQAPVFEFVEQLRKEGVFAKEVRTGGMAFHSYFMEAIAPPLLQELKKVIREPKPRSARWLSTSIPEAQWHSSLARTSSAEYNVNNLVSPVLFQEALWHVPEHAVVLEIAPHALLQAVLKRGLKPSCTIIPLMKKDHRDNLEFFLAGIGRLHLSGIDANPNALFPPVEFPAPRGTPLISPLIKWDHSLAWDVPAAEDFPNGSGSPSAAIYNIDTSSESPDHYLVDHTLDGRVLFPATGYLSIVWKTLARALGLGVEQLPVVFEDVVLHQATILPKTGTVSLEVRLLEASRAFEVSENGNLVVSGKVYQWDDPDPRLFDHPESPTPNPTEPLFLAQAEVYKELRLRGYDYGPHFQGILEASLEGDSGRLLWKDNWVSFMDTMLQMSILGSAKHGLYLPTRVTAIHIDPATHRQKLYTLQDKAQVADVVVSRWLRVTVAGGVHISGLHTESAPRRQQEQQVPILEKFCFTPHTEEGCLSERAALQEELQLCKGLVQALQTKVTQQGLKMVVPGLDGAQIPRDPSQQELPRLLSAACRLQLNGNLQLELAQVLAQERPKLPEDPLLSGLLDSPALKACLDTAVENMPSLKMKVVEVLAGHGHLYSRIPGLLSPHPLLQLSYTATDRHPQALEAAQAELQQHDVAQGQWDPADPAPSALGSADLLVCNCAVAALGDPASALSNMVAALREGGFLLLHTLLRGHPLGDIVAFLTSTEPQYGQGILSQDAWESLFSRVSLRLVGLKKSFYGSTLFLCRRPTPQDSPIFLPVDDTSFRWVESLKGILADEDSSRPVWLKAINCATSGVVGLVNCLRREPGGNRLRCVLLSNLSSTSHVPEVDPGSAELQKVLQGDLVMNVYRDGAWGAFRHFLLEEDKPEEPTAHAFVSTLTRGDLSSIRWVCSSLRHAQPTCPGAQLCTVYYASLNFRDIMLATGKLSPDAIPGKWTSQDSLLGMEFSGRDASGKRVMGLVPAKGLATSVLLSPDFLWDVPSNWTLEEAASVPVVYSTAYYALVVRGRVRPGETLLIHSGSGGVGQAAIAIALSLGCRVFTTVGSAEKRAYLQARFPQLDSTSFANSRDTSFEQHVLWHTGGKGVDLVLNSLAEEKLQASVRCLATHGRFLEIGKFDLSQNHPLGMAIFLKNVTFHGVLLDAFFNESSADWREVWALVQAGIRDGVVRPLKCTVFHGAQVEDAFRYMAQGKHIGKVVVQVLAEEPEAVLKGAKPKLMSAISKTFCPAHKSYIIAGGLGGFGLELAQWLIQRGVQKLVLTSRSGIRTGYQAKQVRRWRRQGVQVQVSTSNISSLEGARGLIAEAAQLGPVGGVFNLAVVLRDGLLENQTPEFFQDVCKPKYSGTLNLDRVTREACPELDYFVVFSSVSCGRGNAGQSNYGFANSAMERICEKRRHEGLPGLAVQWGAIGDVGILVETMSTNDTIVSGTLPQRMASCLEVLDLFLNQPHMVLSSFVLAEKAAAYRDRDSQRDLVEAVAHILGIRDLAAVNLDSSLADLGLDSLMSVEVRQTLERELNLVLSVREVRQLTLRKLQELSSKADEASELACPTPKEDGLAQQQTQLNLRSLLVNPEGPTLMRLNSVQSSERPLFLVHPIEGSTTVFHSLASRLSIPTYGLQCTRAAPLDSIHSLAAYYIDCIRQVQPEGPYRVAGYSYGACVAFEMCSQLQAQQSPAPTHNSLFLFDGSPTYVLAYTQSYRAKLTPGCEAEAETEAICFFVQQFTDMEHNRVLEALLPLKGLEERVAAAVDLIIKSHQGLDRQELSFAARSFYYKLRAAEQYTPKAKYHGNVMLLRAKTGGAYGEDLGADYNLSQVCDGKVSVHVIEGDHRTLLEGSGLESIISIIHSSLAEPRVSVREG
Test [12] concerns the target T3, Fatty acid synthase. The experiment in a line: inhibition of human FAS-TE enzyme activity – biochemical, endpoint fluorescence intensity, uHTS hits, dose response (AID 624327).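 Further: fluorescence from hydrolysis of an O-methyl fluorescein acyl ester substrate by the enzyme.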 The test is classed as functional.

On to `Cc1ccc(SCC2=NN(c3nc(C)cc(C)n3)C(=O)C2)cc1`, for which the IC50 in test [1] is 10.5 µM (active).
The same measure, in the same setting: with `O=c1c2ccccc2nnn1CSc1nc2sc3c(c2c(=O)n1CC1CCCO1)CCC3` (stereo not drawn) the figure was 15.8 µM (active).
By AC50 is commonly meant the concentration giving half of the maximal activity seen. For `C[C@@H]1CN([C@@H](C)CO)C(=O)c2cc(NS(=O)(=O)c3ccc(F)cc3)ccc2O[C@@H]1CN(C)Cc1ccc(C(F)(F)F)cc1`, the concentration at half-maximal activity (AC50) in [2] is 49.5 µM (active); at Paired box protein Pax-8, 15.3 µM (active).
As for `CCOC(=O)c1c(C)oc2c1c(C(c1ccncc1)N1CCOCC1)c(O)c1ccccc12` (stereo not drawn), the IC50 in test [3] is 1.16 µM (active).
Turning to `CCC(=O)N1[C@H](CN(C)C(C)=O)[C@H](c2ccc(-c3cccnc3)cc2)[C@@H]1CO`, the AC50 in [4] is 0.561 µM (active).
For `O=C(O)CC(Sc1nnc(S)s1)C(=O)O` (stereo not drawn), the IC50 in test [5] is 45.1 µM (active).
Turning to `Cc1ccc(-c2cccc(CN3CCN(C(C)C)C(CCO)C3)c2)o1` (stereo not drawn), the IC50 in test [1] is 7.85 µM (active).
For `CCCNC(=O)Nc1ccc2c(c1)C(=O)N(C)[C@@H]1CC[C@@H](CC(=O)NCC3CCCCC3)O[C@H]1CO2`, the AC50 in test [4] is 2.28 µM (active).
By EC50 is commonly meant the concentration at which the effect is half-maximal. The term CC50 denotes the concentration giving 50% cytotoxicity. With `C=CCn1c(O)c(N=NC(S)=Nc2ccccc2F)c2ccccc21`, the IC50 in test [6] and in test [7] was > 66 µM (inactive) each time. Further, the AC50 with HEK293 was 2.88 µM (active). For the same molecule, the concentration for a half-maximal effect (EC50) with Streptococcus was 1.08 µM (active); in test [8], 0.628 µM (active). Also, in the test with Vero, the CC50 was 18.2 µM (active).
As for `CN1c2ccc(-c3cccc(F)c3)cc2[C@@H]2[C@@H](CCN2C(=O)Cc2ccccc2)[C@@H]1CO`, the AC50 in [2] is > 70 µM (inactive); on Paired box protein Pax-8 it was 10.2 µM (active).
In the case of `CCn1c(S)nnc1CCCCc1nnc(S)n1CC`, in test [5], the IC50 is 25.8 µM (active).
In the case of `COc1cccc(CN(C)C(=O)c2ccc(COc3ccc(Cl)cc3)cc2)c1OC`, the half-maximal activity concentration (AC50) with HeLa was 54.8 µM (active).
As to `CC(C)OC(=O)Cn1cnc2ccc(Br)cc2c1=O`, the IC50 in test [3] is 24.1 µM (not active).
Same read-out and setting: with `CC1=C(C(=O)OCC(C)C)C(c2ccsc2)NC(=O)N1` (stereo not drawn) the figure was 2.4 µM (not active).
As for `COc1ccccc1-c1cnn2c(NC3CCCC3)cc(C)nc12`, the concentration for a half-maximal effect (EC50) is 0.139 µM (active) in test [9] and 16.2 µM (active) in the test with H4. Also, the AC50 in the test with HeLa is 117 µM (active). Besides, the CC50 in test [10] is 40 µM (active).
As to `COc1ccc(N2C(=O)CC(Sc3n[nH]c(-c4ccc(C)cc4)n3)C2=O)cc1` (stereo not drawn), the IC50 in test [5] was 21.2 µM (active).
Consider `Cn1c(SCc2ccccc2Cl)nc2ccccc21`, for which, in the test with HeLa, the AC50 was 75 µM (active).
The same measure, in the same setting: with `Cc1nc(C(C)NC(=O)CCc2nnc(CCCc3ccccc3)o2)c(C)s1` (stereo not drawn) the figure was 314 µM (active).
In the case of `COc1ccc(-c2ccc3c(c2)[C@@H]2[C@@H](CCN2C(=O)C2CCCC2)[C@H](CO)N3C)cc1`, the AC50 is > 70 µM (inactive) in test [2] and 14.2 µM (active) on Paired box protein Pax-8.
For `COc1cc(SC)ccc1C(=O)N1CCN(c2ccccc2)CC1`, the IC50 in [3] is < 0.4 µM (not active).
In the case of `COc1ccc(NC(C)=O)cc1S(=O)(=O)Nc1ccccc1C(=O)NCCc1ccccc1`, the EC50 in test [9] was 0.519 µM (active); in the test on H4, 50.7 µM (active). Moreover, the AC50 with HeLa was 230 µM (active).
For `O=C(N/N=C/C1CC=CCC1)c1cc(-c2cccnc2)nc2ccccc12` (stereo not drawn), in [1], the IC50 is 15.1 µM (active).
For the molecule `Cc1cc(Cl)ccc1NC(=O)COC(=O)c1cc([N+](=O)[O-])ccc1N1CCOCC1`, the IC50 at Fatty acid synthase [11] was 2.13 µM (active); at Fatty acid synthase [12] it was 2.55 µM (active).
Turning to `Cc1ccc(-n2nc3ccc(NC(=O)C(C)C)cc3n2)cc1`, the AC50 with HeLa was 54.8 µM (active).
